According to patent publication US20160022718A1, “METHODS OF LOWERING BLOOD PRESSURE” (LEXICON PHARMACEUTICALS, INC., priority 2010, published 2016):

Test system: patients with type 2 diabetes mellitus
Test: randomized, double-blind, placebo controlled Phase 2a clinical trial, 28 days once daily oral dosing
Type: in vivo, human
Conditions: for Change in Weight, change from baseline / Seated Diastolic BP, change from baseline / Seated Systolic BP, change from baseline / Serum Triglyceride, change from baseline: four-week treatment; for Change in Weight, change from baseline: placebo −2.2; for Seated Diastolic BP, change from baseline: placebo −2.9; for Seated Systolic BP, change from baseline: placebo −4.3; for Serum Triglyceride, change from baseline: placebo −20.2; for reduction of average percent HbA1c after four weeks of dosing: placebo 0.49; for reduction in fasting plasma glucose level at week four: placebo 15.1 mg/dl
Experimental: Certain aspects of this invention may be understood with reference to the figures, which provide results obtained from a randomized, double-blind, placebo controlled Phase 2a clinical trial, wherein 150 mg and 300 mg doses of a compound of the invention were orally administered once daily to patients with type 2 diabetes mellitus.
This invention is based, in part, on findings—provided herein—obtained from a randomized, double-blind, placebo controlled Phase 2a clinical trial, wherein 150 mg/day and 300 mg/day doses of a dual SGLT1/2 inhibitor were administered to patients with type 2 diabetes mellitus. The dual SGLT1/2 inhibitor was (2S,3R,4R,5S,6R)-2-(4-chloro-3-(4-ethoxybenzyl)phenyl)-6-(methylthio)tetrahydro-2H-pyran-3,4,5-triol, which has the structure:
Patients (n=36) with type 2 diabetes mellitus received one of two oral doses of (2S,3R,4R,5S,6R)-2-(4-chloro-3-(4-ethoxybenzyl)phenyl)-6-(methylthio)tetrahydro-2H-pyran-3,4,5-triol, given as 150 mg or 300 mg once daily, or matching placebo, for 28 days.
In this study, patients on metformin were taken off of the drug 16 days prior to day 0, the day dosing first began.

[1] = both treatment groups (150 mg/day and 300 mg/day)

Question: With `CCOc1ccc(Cc2cc([C@@H]3O[C@H](SC)[C@@H](O)[C@H](O)[C@H]3O)ccc2Cl)cc1` [(2S,3R,4R,5S,6R)-2-(4-chloro-3-(4-ethoxybenzyl)phenyl)-6-(methylthio)tetrahydro-2H-pyran-3,4,5-triol] as the molecule, how does the “Change in Weight, change from baseline” value (150 mg (n = 12)) read?
Answer: −3.4%

Question: And the “Seated Diastolic BP, change from baseline” value (150 mg (n = 12))?
Answer: −5.8 mmHg

Question: And the “Seated Systolic BP, change from baseline” value (150 mg (n = 12))?
Answer: −10.3 mmHg

Question: And the “Serum Triglyceride, change from baseline” value (150 mg (n = 12))?
Answer: -66.6 mg/dL

Question: And the “reduction of average percent HbA1c after four weeks of dosing” value (150 mg dose group, p=0.036, baseline 8.22%)?
Answer: 1.15%

Question: And the “reduction in fasting plasma glucose level at week four” value (150 mg dose group)?
Answer: 53.4 mg/dL

Question: And the dose-limiting toxicities (150 mg or 300 mg once daily, 28 days)?
Answer: no evidence of dose-limiting toxicities was observed

Question: And the adverse events (150 mg or 300 mg once daily, 28 days, evenly distributed across all dose groups, including placebo)?
Answer: generally mild

Question: What about the “insulin sensitivity, homeostatic model assessment (HOMA) (FIG. 4)” value (150 mg/day and 300 mg/day groups vs placebo, day 27) of the same molecule?
Answer: improved insulin sensitivity

Question: And the “mean plasma glucose AUC (FIG. 3)” value (150 mg/day and 300 mg/day groups, after one day of treatment)?
Answer: statistically significant decreases

Question: And the “Change in Weight, change from baseline” value (300 mg (n = 12))?
Answer: −3.7%

Question: What about the “Seated Diastolic BP, change from baseline” value (300 mg (n = 12)) of the same molecule?
Answer: −5.3 mmHg

Question: And the “Seated Systolic BP, change from baseline” value (300 mg (n = 12))?
Answer: −13.1 mmHg

Question: And the “Serum Triglyceride, change from baseline” value (300 mg (n = 12))?
Answer: -62.8 mg/dL

Question: And the “reduction of average percent HbA1c after four weeks of dosing” value (300 mg dose group, p=0.017, baseline 8.50%)?
Answer: 1.25%

Question: What about the “percentage of patients achieving fasting plasma glucose levels of <105 mg/dl at week four” value (300 mg dose group, p=0.037 vs placebo) of the same molecule?
Answer: 42%

Question: And the “reduction in fasting plasma glucose level at week four” value (300 mg dose group)?
Answer: 65.9 mg/dL

Question: And the “share of patients with HbA1c levels reduced to less than or equal to 7%” value (both dose groups (150 mg and 300 mg), four weeks)?
Answer: half

Question: And the “glucosuria over the 28-day dosing period compared to placebo” value (both dose levels (150 mg and 300 mg once daily, oral), preliminary data)?
Answer: significant and sustained glucosuria

Question: And the “glucose tolerance vs placebo group (FIG. 2)” value [1]?
Answer: greater glucose tolerance

Question: What about the “mean arterial pressure, day 28 compared to baseline (FIG. 10)” value [1] of the same molecule?
Answer: decreased

Question: And the “post-prandial glucose levels compared to placebo (FIG. 5)” value [1]?
Answer: rapid, statistically significant decrease
